Test results: ChEMBL document CHEMBL2331514, “Structure-based design and synthesis of novel pseudosaccharine derivatives as antiproliferative agents and kinase inhibitors” (Eur J Med Chem, 2013)

Columns and labels:
[1] = Partition coefficient, log P of the compound; assay type: physicochemical; settings: octanol/water
T47D = assay: Cytotoxicity against human T47D cells assessed as growth inhibition at 10 uM after 48 hrs by SRB assay; assay type: functional; settings: read-out: GI
BT-549 = assay: Cytotoxicity against human BT549 cells assessed as growth inhibition at 10 uM after 48 hrs by SRB assay; assay type: functional; settings: BT-549, 48 h, read-out: GI
MDA-MB-231 = assay: Cytotoxicity against human MDA-MB-231 cells assessed as growth inhibition at 10 uM after 48 hrs by SRB assay; assay type: functional; settings: MDA-MB-231, 48 h, read-out: GI
DU-145 = assay: Cytotoxicity against human DU145 cells assessed as growth inhibition at 10 uM after 48 hrs by SRB assay; assay type: functional; settings: DU-145, 48 h, read-out: GI
MCF7 = assay: Cytotoxicity against human MCF7 cells assessed as growth inhibition at 10 uM after 48 hrs by SRB assay; assay type: functional; settings: MCF7, 48 h, read-out: GI
UO-31 = assay: Cytotoxicity against human UO31 cells assessed as growth inhibition at 10 uM after 48 hrs by SRB assay; assay type: functional; settings: UO-31, 48 h, read-out: GI
TK-10 = assay: Cytotoxicity against human TK10 cells assessed as growth inhibition at 10 uM after 48 hrs by SRB assay; assay type: functional; settings: TK-10, 48 h, read-out: GI
SN12C = assay: Cytotoxicity against human SN12C cells assessed as growth inhibition at 10 uM after 48 hrs by SRB assay; assay type: functional; settings: read-out: GI
CAKI-1 = assay: Cytotoxicity against human Caki1 cells assessed as growth inhibition at 10 uM after 48 hrs by SRB assay; assay type: functional; settings: CAKI-1, 48 h, read-out: GI
ACHN = assay: Cytotoxicity against human ACHN cells assessed as growth inhibition at 10 uM after 48 hrs by SRB assay; assay type: functional; settings: read-out: GI
786-0 = assay: Cytotoxicity against human 786-0 cells assessed as growth inhibition at 10 uM after 48 hrs by SRB assay; assay type: functional; settings: 786-0, 48 h, read-out: GI
SK-OV-3 = assay: Cytotoxicity against human SKOV3 cells assessed as growth inhibition at 10 uM after 48 hrs by SRB assay; assay type: functional; settings: SK-OV-3, 48 h, read-out: GI
OVCAR-8 = assay: Cytotoxicity against human OVCAR8 cells assessed as growth inhibition at 10 uM after 48 hrs by SRB assay; assay type: functional; settings: OVCAR-8, 48 h, read-out: GI
OVCAR-3 = assay: Cytotoxicity against human OVCAR3 cells assessed as growth inhibition at 10 uM after 48 hrs by SRB assay; assay type: functional; settings: OVCAR-3, 48 h, read-out: GI
UACC-257 = assay: Cytotoxicity against human UACC257 cells assessed as growth inhibition at 10 uM after 48 hrs by SRB assay; assay type: functional; settings: UACC-257, 48 h, read-out: GI
SK-MEL-5 = assay: Cytotoxicity against human SK-MEL-5 cells assessed as growth inhibition at 10 uM after 48 hrs by SRB assay; assay type: functional; settings: SK-MEL-5, 48 h, read-out: GI
MDA-MB-435 = assay: Cytotoxicity against human MDA-MB-435 cells assessed as growth inhibition at 10 uM after 48 hrs by SRB assay; assay type: functional; settings: MDA-MB-435, 48 h, read-out: GI
M14 = assay: Cytotoxicity against human M14 cells assessed as growth inhibition at 10 uM after 48 hrs by SRB assay; assay type: functional; settings: M14, 48 h, read-out: GI
Malme-3M = assay: Cytotoxicity against human MALME-3M cells assessed as growth inhibition at 10 uM after 48 hrs by SRB assay; assay type: functional; settings: read-out: GI
LOX IMVI = assay: Cytotoxicity against human LOXIMVI cells assessed as growth inhibition at 10 uM after 48 hrs by SRB assay; assay type: functional; settings: read-out: GI
U-251 = assay: Cytotoxicity against human U251 cells assessed as growth inhibition at 10 uM after 48 hrs by SRB assay; assay type: functional; settings: U-251, 48 h, read-out: GI
SNB-75 = assay: Cytotoxicity against human SNB75 cells assessed as growth inhibition at 10 uM after 48 hrs by SRB assay; assay type: functional; settings: SNB-75, 48 h, read-out: GI
SF-539 = assay: Cytotoxicity against human SF539 cells assessed as growth inhibition at 10 uM after 48 hrs by SRB assay; assay type: functional; settings: SF-539, 48 h, read-out: GI
SF-268 = assay: Cytotoxicity against human SF268 cells assessed as growth inhibition at 10 uM after 48 hrs by SRB assay; assay type: functional; settings: SF-268, 48 h, read-out: GI
HCT-15 = assay: Cytotoxicity against human HCT15 cells assessed as growth inhibition at 10 uM after 48 hrs by SRB assay; assay type: functional; settings: HCT-15, 48 h, read-out: GI
COLO 205 = assay: Cytotoxicity against human COLO205 cells assessed as growth inhibition at 10 uM after 48 hrs by SRB assay; assay type: functional; settings: COLO 205, 48 h, read-out: GI
NCI-H522 = assay: Cytotoxicity against human NCI-H522 cells assessed as growth inhibition at 10 uM after 48 hrs by SRB assay; assay type: functional; settings: NCI-H522, 48 h, read-out: GI
NCI-H460 = assay: Cytotoxicity against human NCI-H460 cells assessed as growth inhibition at 10 uM after 48 hrs by SRB assay; assay type: functional; settings: NCI-H460, 48 h, read-out: GI
NCI-H322M = assay: Cytotoxicity against human NCI-H322M cells assessed as growth inhibition at 10 uM after 48 hrs by SRB assay; assay type: functional; settings: read-out: GI
NCI-H23 = assay: Cytotoxicity against human NCI-H23 cells assessed as growth inhibition at 10 uM after 48 hrs by SRB assay; assay type: functional; settings: NCI-H23, 48 h, read-out: GI
HOP-92 = assay: Cytotoxicity against human HOP92 cells assessed as growth inhibition at 10 uM after 48 hrs by SRB assay; assay type: functional; settings: HOP-92, 48 h, read-out: GI
HOP-62 = assay: Cytotoxicity against human HOP62 cells assessed as growth inhibition at 10 uM after 48 hrs by SRB assay; assay type: functional; settings: HOP-62, 48 h, read-out: GI
[2] = Cytotoxicity against human EKVX cells assessed as growth inhibition at 10 uM after 48 hrs by SRB assay; assay type: functional; settings: read-out: GI
SR = assay: Cytotoxicity against human SR cells assessed as growth inhibition at 10 uM after 48 hrs by SRB assay; assay type: functional; settings: read-out: GI
RPMI-8226 = assay: Cytotoxicity against human RPMI8226 cells assessed as growth inhibition at 10 uM after 48 hrs by SRB assay; assay type: functional; settings: RPMI-8226, 48 h, read-out: GI
MOLT-4 = assay: Cytotoxicity against human MOLT4 cells assessed as growth inhibition at 10 uM after 48 hrs by SRB assay; assay type: functional; settings: MOLT-4, 48 h, read-out: GI
HL-60(TB) = assay: Cytotoxicity against human HL-60(TB) cells assessed as growth inhibition at 10 uM after 48 hrs by SRB assay; assay type: functional; settings: HL-60, 48 h, read-out: GI
CCRF-CEM = assay: Cytotoxicity against human CCRF-CEM cells assessed as growth inhibition at 10 uM after 48 hrs by SRB assay; assay type: functional; settings: read-out: GI

Row | Compound | logP [1] | inhibition of growth at 10 µM (T47D) [%] | inhibition of growth at 10 µM (BT-549) [%] | inhibition of growth at 10 µM (MDA-MB-231) [%] | inhibition of growth at 10 µM (DU-145) [%] | inhibition of growth at 10 µM (MCF7) [%] | inhibition of growth at 10 µM (UO-31) [%] | inhibition of growth at 10 µM (TK-10) [%] | inhibition of growth at 10 µM (SN12C) [%] | inhibition of growth at 10 µM (CAKI-1) [%] | inhibition of growth at 10 µM (ACHN) [%] | inhibition of growth at 10 µM (786-0) [%] | inhibition of growth at 10 µM (SK-OV-3) [%] | inhibition of growth at 10 µM (OVCAR-8) [%] | inhibition of growth at 10 µM (OVCAR-3) [%] | inhibition of growth at 10 µM (UACC-257) [%] | inhibition of growth at 10 µM (SK-MEL-5) [%] | inhibition of growth at 10 µM (MDA-MB-435) [%] | inhibition of growth at 10 µM (M14) [%] | inhibition of growth at 10 µM (Malme-3M) [%] | also measured
1 | COc1ccc(NC(=O)Nc2ccc(NC3=NS(=O)(=O)c4ccccc43)cc2)cc1 | 2.99 | 5 | 15 | -13 | 3 | 13 | 1 | -4 | 5 | -1 | -3 | 19 | -20 | -11 | -2 | -19 | 14 | 6 | -8 | 6 | inhibition of growth at 10 µM (LOX IMVI): 1%; inhibition of growth at 10 µM (U-251): 14%; inhibition of growth at 10 µM (SNB-75): 1%; inhibition of growth at 10 µM (SF-539): 14%; inhibition of growth at 10 µM (SF-268): -1%; inhibition of growth at 10 µM (HCT-15): 3%; inhibition of growth at 10 µM (COLO 205): -36%; inhibition of growth at 10 µM (NCI-H522): 0%; inhibition of growth at 10 µM (NCI-H460): 1%; inhibition of growth at 10 µM (NCI-H322M): 0%; inhibition of growth at 10 µM (NCI-H23): 8%; inhibition of growth at 10 µM (HOP-92): -13%; inhibition of growth at 10 µM (HOP-62): -12%; inhibition of growth at 10 µM [2]: 2%; inhibition of growth at 10 µM (SR): 11%; inhibition of growth at 10 µM (RPMI-8226): 4%; inhibition of growth at 10 µM (MOLT-4): 11%; inhibition of growth at 10 µM (HL-60(TB)): 10%; inhibition of growth at 10 µM (CCRF-CEM): 14%
2 | O=C(Nc1ccccc1)Nc1ccc(OC2=NS(=O)(=O)c3ccccc32)cc1 | 2.89 | 23 | 12 | 63 | 18 | 17 | 13 | -7 | 18 | 25 | 12 | 26 | -13 | 5 | -9 | -1 | 17 | 15 | 42 | 21 | inhibition of growth at 10 µM (LOX IMVI): 49%; inhibition of growth at 10 µM (U-251): 21%; inhibition of growth at 10 µM (SNB-75): 22%; inhibition of growth at 10 µM (SF-539): 21%; inhibition of growth at 10 µM (SF-268): 6%; inhibition of growth at 10 µM (HCT-15): 48%; inhibition of growth at 10 µM (COLO 205): -9%; inhibition of growth at 10 µM (NCI-H522): 21%; inhibition of growth at 10 µM (NCI-H460): 21%; inhibition of growth at 10 µM (NCI-H322M): 5%; inhibition of growth at 10 µM (NCI-H23): 6%; inhibition of growth at 10 µM (HOP-92): 2%; inhibition of growth at 10 µM (HOP-62): -11%; inhibition of growth at 10 µM [2]: -3%; inhibition of growth at 10 µM (SR): 36%; inhibition of growth at 10 µM (RPMI-8226): 36%; inhibition of growth at 10 µM (MOLT-4): 32%; inhibition of growth at 10 µM (HL-60(TB)): 23%; inhibition of growth at 10 µM (CCRF-CEM): 41%
